# Experimental data reported in publication PMC3066269 (Bioorganic & medicinal chemistry, 2011).
# Target: hAChE-induced aggregation of Aβ1–40 (Homo sapiens, UniProt P22303)
# Assay: hAChE-induced Aβ aggregation inhibition, thioflavin T fluorescence
# Type: biochemical
# Conditions: 100 μM compound, 50 μM Aβ1–40, 24 h, ThT; NA = Not active
# hAChE-induced aggregation of Aβ1–40, sequence (P22303 32-614): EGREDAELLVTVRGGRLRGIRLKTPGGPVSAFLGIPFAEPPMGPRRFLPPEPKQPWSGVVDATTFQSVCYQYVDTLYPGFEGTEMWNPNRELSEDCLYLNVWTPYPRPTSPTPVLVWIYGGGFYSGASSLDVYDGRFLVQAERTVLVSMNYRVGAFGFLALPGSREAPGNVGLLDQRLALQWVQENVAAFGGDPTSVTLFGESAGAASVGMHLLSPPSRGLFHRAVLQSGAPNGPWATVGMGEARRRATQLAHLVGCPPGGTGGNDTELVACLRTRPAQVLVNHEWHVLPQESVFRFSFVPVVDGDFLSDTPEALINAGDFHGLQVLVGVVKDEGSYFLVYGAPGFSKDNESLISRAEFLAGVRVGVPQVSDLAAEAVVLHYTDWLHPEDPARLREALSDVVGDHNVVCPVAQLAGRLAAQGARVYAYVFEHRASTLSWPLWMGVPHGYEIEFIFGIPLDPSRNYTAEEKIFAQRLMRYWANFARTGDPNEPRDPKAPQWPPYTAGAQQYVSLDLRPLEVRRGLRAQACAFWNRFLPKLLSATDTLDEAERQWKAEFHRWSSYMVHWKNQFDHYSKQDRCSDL
row,SMILES,Inhibition of hAChE-induced aggregation of Aβ1–40 at 100 μM ± SEM
1,"c1ccc(CNc2ccnc(N3CCSCC3)n2)cc1 [7c, N-Benzyl-2-thiomorpholinopyrimidin-4-amine]",either weak or no anti-aggregation activity
2,"c1ccc(CNc2ccnc(N3CCCC3)n2)cc1 [7a, N-Benzyl-2-(pyrrolidin-1-yl)pyrimidin-4-amine]",did not provide anti-aggregation activity
3,"c1ccc(CCNc2ccnc(N3CCSCC3)n2)cc1 [8c, N-Phenethyl-2-thiomorpholinopyrimidin-4-amine]",either weak or no anti-aggregation activity
